The compounds below were run against T1, NS3 genotype 3a protease (UniProt Q81258) (assay: Ki determination, NS3 protease genotype 3a (fluorogenic depsipeptide substrate)). Settings: 200 pM enzyme, 20 μM NS4A peptide, 2 μM substrate, read-out: Ki 3A.
T1 construct: Purified NS3 protease domain (amino acids 1-181) of the genotype 1b and 3a virus were generated as above; fused on or other part: N-terminal hexahistidine tag and rTEV protease cleavage site (vector p28-N6H-Tev-NS3(181)3)
T1 sequence (Q81258 1033-1663): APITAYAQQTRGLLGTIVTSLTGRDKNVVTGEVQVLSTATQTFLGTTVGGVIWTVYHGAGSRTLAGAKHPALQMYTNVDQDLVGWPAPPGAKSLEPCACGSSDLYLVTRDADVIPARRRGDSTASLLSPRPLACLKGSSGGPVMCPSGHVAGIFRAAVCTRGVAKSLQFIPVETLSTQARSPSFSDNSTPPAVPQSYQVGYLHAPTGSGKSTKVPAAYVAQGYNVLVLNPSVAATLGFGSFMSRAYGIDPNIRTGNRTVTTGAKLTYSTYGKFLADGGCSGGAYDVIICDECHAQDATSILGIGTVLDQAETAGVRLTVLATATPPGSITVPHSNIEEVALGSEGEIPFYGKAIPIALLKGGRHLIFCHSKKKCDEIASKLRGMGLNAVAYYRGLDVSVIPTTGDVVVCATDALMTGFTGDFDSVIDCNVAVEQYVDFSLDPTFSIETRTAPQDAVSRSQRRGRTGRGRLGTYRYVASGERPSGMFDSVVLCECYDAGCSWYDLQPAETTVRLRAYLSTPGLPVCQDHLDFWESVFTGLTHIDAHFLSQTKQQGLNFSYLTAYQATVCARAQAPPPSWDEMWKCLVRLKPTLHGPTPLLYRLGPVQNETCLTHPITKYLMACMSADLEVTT
Assay type: biochemical, hepatitis C virus
Method in brief: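 Refolded His-tagged NS3 protease domain (aa 1-181, genotype 3a) at 200 pM with 20 μM NS4A peptide was pre-incubated 1 h at RT with inhibitor (100 nM–5 pM, 3-fold), then 2 μM FRET depsipeptide substrate was added in HEPES/40% glycerol/10% DMSO buffer. Steady-state rates over 90-120 min (ex 340/em 490 nm) versus inhibitor concentration gave Ki.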
Compound `CC[C@@H]1[C@@H]2CN(C(=O)[C@H](C(C)(C)C)NC(=O)O[C@]3(C)CCC[C@H]3CCCCCc3nc4ccc(OC)cc4nc3O2)[C@@H]1C(=O)N[C@]1(C(=O)NS(=O)(=O)C2(C)CC2)C[C@H]1CC(F)F` [Example 41, (3aR,7S,10S,11S,12R,24aR)-7-tert-butyl-N-[(1R,2S)-2-(2,2-difluoroethyl)-1-{[(1-methylcyclopropyl)sulfonyl]carbamoyl}cyclopropyl]-11-ethyl-16-methoxy-3a-methyl-5,8-dioxo-1,2,3,3a,5,6,7,8,11,12,20,21,22,23,24,24a-hexadecahydro-10H-9,12-methanocyclopenta[18,19][1,10,3,6]dioxadiazacyclononadecino[11,12-b]quinoxaline-10-carboxamide] has a Ki of 0.79 nM.
`COc1ccc2nc3c(nc2c1)O[C@H]1CN(C(=O)[C@H](C(C)(C)C)NC(=O)O[C@@H]2C[C@H]2CCCCC3F)[C@H](C(=O)N[C@]2(C(=O)NS(=O)(=O)C3(C)CC3)C[C@H]2C(F)F)[C@@H]1C` (stereo partly drawn) [Example 47, (1aR,5S,8S,9S,10R,22aR)-5-tert-butyl-N-[(1R,2R)-2-(difluoromethyl)-1-{[(1-methylcyclopropyl)sulfonyl]carbamoyl}cyclopropyl]-18-fluoro-14-methoxy-9-methyl-3,6-dioxo-1,1a,3,4,5,6,9,10,18,19,20,21,22,22a-tetradecahydro-8H-7,10-methanocyclopropa[18,19][1,10,3,6]dioxadiazacyclononadecino[11,12-b]quinoxaline-8-carboxamide] showed a Ki of 0.19 nM.
With `CC[C@@H]1[C@@H]2CN(C(=O)[C@H](C(C)(C)C)NC(=O)O[C@@H]3C[C@H]3CC/C=C/C(F)(F)C3Nc4ccc(C#N)cc4N=C3O2)[C@@H]1C(=O)N[C@]1(C(=O)NS(=O)(=O)C2(C)CC2)C[C@H]1C(F)F` (stereo partly drawn) [Example 78, (1aR,5S,8S,9S,10R,19E,22aR)-5-tert-butyl-14-cyano-N-[(1R,2R)-2-(difluoromethyl)-1-{[(1-methylcyclopropyl)sulfonyl]carbamoyl}cyclopropyl]-9-ethyl-18,18-difluoro-3,6-dioxo-1,1a,3,4,5,6,9,10,17,17a,18,21,22,22a-tetradecahydro-8H-7,10-methanocyclopropa[18,19][1,10,3,6]dioxadiazacyclononadecino[11,12-b]quinoxaline-8-carboxamide] the Ki was 0.82 nM.
In the case of `C[C@@H]1[C@@H]2CN(C(=O)[C@H](C(C)(C)C)NC(=O)O[C@@H]3C[C@H]3CCCCC(F)(F)c3nc4ccc(Cl)cc4nc3O2)[C@@H]1C(=O)N[C@]1(C(=O)NS(=O)(=O)C2(C)CC2)C[C@H]1C(F)F` [Example 88, (1aR,5S,8S,9S,10R,22aR)-5-tert-butyl-14-chloro-N-[(1R,2R)-2-(difluoromethyl)-1-{[(1-methylcyclopropyl)sulfonyl]carbamoyl}cyclopropyl]-18,18-difluoro-9-methyl-3,6-dioxo-1,1a,3,4,5,6,9,10,18,19,20,21,22,22a-tetradecahydro-8H-7,10-methanocyclopropa[18,19][1,10,3,6]dioxadiazacyclononadecino[11,12-b]quinoxaline-8-carboxamide], the Ki is reported as 0.29 nM.

Reference: patent publication US20150175655A1 (priority 2012, published 2015)
